Values of other authors in patent US10722518B2, “Oxazine derivative for use in the treatment or prevention of cerebral amyloid angiopathy” (Novartis AG, priority 2016, dated 2020).

Test system: APP23 mice
Conditions: aged APP23 mice treated for three months; cited from earlier work

SMILES: Cc1cc(C#N)cnc1C(=O)Nc1ccc(F)c([C@]2(C)CO[C@@](C)(C(F)(F)F)C(N)=N2)c1 [NB360]
- effect on CAA-related microhaemorrhage (volumetric MRI): no effect
